Data from ChEMBL document CHEMBL4020808, “Inhibitors of DNA Gyrase-GyrB Subunit and/or Topoisomerase IV-ParE Subunit May Treat Infectious Diseases Caused by Antibiotic-Resistant Bacteria” (2017).
In brackets after ≈: the same amount, converted by molar mass.

How the values were obtained:
Type in all cases: functional
Clostridioides difficile = assay: Antimicrobial activity against Clostridioides difficile ATCC 43255 under anaerobic condition for 42 to 48 hrs by agar dilution method
Enterococcus faecalis = assay: Antimicrobial activity against Enterococcus faecalis ATCC 29212 after 20 hrs by broth microdilution method; settings: ATCC 29212, 20 h
Staphylococcus aureus = assay: Antimicrobial activity against Staphylococcus aureus ATCC 29213 after 20 hrs by broth microdilution method; settings: ATCC 29213, 20 h
Haemophilus influenzae = assay: Antimicrobial activity against Haemophilus influenzae ATCC 49247 after 20 hrs by broth microdilution method; settings: ATCC 49247, 20 h
Streptococcus pneumoniae = assay: Antimicrobial activity against Streptococcus pneumoniae ATCC 49619 after 20 hrs by broth microdilution method; settings: ATCC 49619, 20 h

CCc1[nH]c(C(=O)N[C@@H]2CCN(c3nnc([C@@H](C)O)s3)C[C@@H]2OC)nc1Cl
MIC (Clostridioides difficile): 0.06 µg/mL (≈ 0.145 µM)
MIC (Enterococcus faecalis): 0.25 µg/mL (≈ 0.603 µM)
MIC (Staphylococcus aureus): 0.5 µg/mL (≈ 1.21 µM)
MIC (Haemophilus influenzae): 1 µg/mL (≈ 2.41 µM)
MIC (Streptococcus pneumoniae): 0.25 µg/mL (≈ 0.603 µM)

CCc1[nH]c(C(=O)N[C@@H]2CCN(c3nnc(C(C)(C)O)s3)C[C@@H]2OC)nc1Cl
MIC (Clostridioides difficile): 0.06 µg/mL (≈ 0.14 µM)
MIC (Enterococcus faecalis): 0.25 µg/mL (≈ 0.583 µM)
MIC (Staphylococcus aureus): 0.25 µg/mL (≈ 0.583 µM)
MIC (Haemophilus influenzae): 0.5 µg/mL (≈ 1.17 µM)
MIC (Streptococcus pneumoniae): 0.25 µg/mL (≈ 0.583 µM)

CCc1[nH]c(C(=O)N[C@@H]2CCN(c3nnc([C@@H](O)CO)s3)C[C@@H]2OC)nc1Cl
MIC (Clostridioides difficile): 0.125 µg/mL (≈ 0.29 µM)
MIC (Staphylococcus aureus): 4 µg/mL (≈ 9.28 µM)

CCO[C@H]1CN(c2nnc(C(C)O)s2)CC[C@H]1NC(=O)c1nc(Cl)c(CC)[nH]1 (some centres undefined)
MIC (Clostridioides difficile): 0.03 µg/mL (≈ 0.0699 µM)
MIC (Enterococcus faecalis): 0.25 µg/mL (≈ 0.583 µM)
MIC (Staphylococcus aureus): 0.5 µg/mL (≈ 1.17 µM)
MIC (Haemophilus influenzae): 2 µg/mL (≈ 4.66 µM)
MIC (Streptococcus pneumoniae): 0.25 µg/mL (≈ 0.583 µM)

CCc1[nH]c(C(=O)N[C@@H]2CCN(c3nnc([C@H](C)O)s3)C[C@@H]2OC)nc1Cl
MIC (Clostridioides difficile): 0.125 µg/mL (≈ 0.301 µM)
MIC (Enterococcus faecalis): 0.25 µg/mL (≈ 0.603 µM)
MIC (Staphylococcus aureus): 0.5 µg/mL (≈ 1.21 µM)
MIC (Haemophilus influenzae): 1 µg/mL (≈ 2.41 µM)
MIC (Streptococcus pneumoniae): 0.25 µg/mL (≈ 0.603 µM)

CCc1[nH]c(C(=O)N[C@@H]2CCN(c3nnc([C@@](C)(O)CO)s3)C[C@@H]2OC)nc1Cl
MIC (Clostridioides difficile): 0.06 µg/mL (≈ 0.135 µM)
MIC (Staphylococcus aureus): 1 µg/mL (≈ 2.25 µM)
